Experimental data: patent publication US5776720A, “Assay reagent” (priority 1995, dated 1998)
Counter-ions that a name gives are not always drawn.

Experiments:
[1] = tested on: amino peptidase; experiment: immune competence, amino peptidase activity in Ficoll prepared lymphocytes (FIG. 4); type: cell-based; conditions: acute lympholytic Ficoll prepared lymphocytes, FIG. 4B
Source text: The cell's ability to fight off an invader lies within its genetics and therefore cell type. The "readiness" however of any genetically capable group of cells to defend is different. A measure of this "readiness" is manifest in the available proteolytic enzymes contained within vacuoles or on the surface of the cell. The assay compound hydrolysis rate increases with increased mass of enzymes giving a picture of immune competence both in number of cells and activity level. […] Images were generated using Universal Imaging.

[2] = tested on: lymphocytes; experiment: Normal leukocyte enzyme activity (Table 3A), lymphocytes; type: cell-based, human; design: unit not given here; conditions: normal donors
Source text: (§1) The measured fluorescence intensity can be converted from mean channel fluorescence (in peak or integrated mode) to MESF (molecules of equivalent soluble fluorochrome, Flow Cytometry Standards Corp. , San Juan, Puerto Rico) or International Units of hydrolysis per cell. A normal range of enzyme activity is established by assaying males and females in sufficient quantity to characterize the population levels statistically.
(§2) A normal in house adult donor pool was drawn, recording sex and determining that no known disease state was present at the time of sample draw. Criteria for rejecting samples included patients under medication, patients with infection or inflammation of any type, colds and flu as well as any known medical illness such as cancer, heart ailment and high blood pressure. A donor list of 75 patients has been developed and a mean and 2 sd range established. A subgroup of "super normals" was developed from this list by examining the 75 patients to determine which group falls closest to the mean for all enzymes in all cell types tested. These patients were used as the "wellness index" or best group of "normalcy" patients. If a study required the use of children or newborns then this same format was used to develop a data base for these age groups.

[3] = tested on: monocytes; experiment: Normal leukocyte enzyme activity (Table 3A), monocytes; type: cell-based, human; design: unit not given here; conditions: normal donors
Source text: as §1, §2

[4] = tested on: granulocytes; experiment: Normal leukocyte enzyme activity (Table 3A), granulocytes; type: cell-based, human; design: unit not given here; conditions: normal donors
Source text: as §1, §2

[5] = native free fluorescence; type: physicochemical
Source text: Assays for peptidases using assay compounds generate fluorescence generally in the range of 10^-5 to 10^-6 Molar free rhodamine 110. Therefore, it is preferred that the free rhodamine 110 and blocked peptide impurities in the assay reagent should be removed to a concentration of less than the fluorescence generated by about 1×10^-6 M and more preferably less than the fluorescence generated by about 10^-7 Molar free indicator group. This amounts to a 100,000 photon count using rhodamine 110 as a standard at 10^-7 -10^-8 M, preferably 5×10^-8 M in a 1 cm path length cuvette when measured over 10 min. on a photon counting spectrofluorometer manufactured by the SLM Company of Chicago, Ill. This corresponds to a use level on the flow cytometer where no cellular false positive can be detected for a 10 minute period at the highest sensitivity setting. […] The presence of impurities causes a decrease in the storage stability of the compound, resulting in an increased autohydrolysis which leads to increased background fluorescence. A compound should be free of impurities such that when the compound (or reagent containing the compound) is stored at 4° C. for 30 days, preferably 90 days, more preferably 180 days, most preferably one year, the background fluorescence increases less than 10% , preferably less than 5% , most preferably less than 1% over these time periods, respectively. […]

[6] = autohydrolysis rate; type: physicochemical; conditions: 37° C., 1 cm path length
Protocol: A reaction run using the same data collection window without the enzyme source will determine auto-hydrolysis of the substrate and therefore the potential for negative cells to absorb the dye non-specifically resulting in false positive.
(§3) The acetate and tartrate salts thus prepared have the following characteristics, respectively: native free fluorescence, 63,000 and 61,000 photons; autohydrolysis rate when measured at 37° C. using a 1 cm path length, -5.56 and -3.8 change in photons per second; and enzymatic reaction rate of cathepsin B at 37° C., +128 and +138 change in photons per second.

[7] = tested on: cathepsin B; experiment: enzymatic reaction rate of cathepsin B; type: biochemical; conditions: 37° C.
Protocol: as §3

[8] = tested on: aminopeptidase; experiment: effect of calcium chloride on aminopeptidase reaction with (H-L-Asp)2 rhodamine 110; type: biochemical; conditions: approximately 10 mM
Source text: The chemical nature of the buffer is important to the reactivity of the assay compound with the cellular enzymes. […] In addition, the assay compound hydrolysis by the enzyme occurs at an increased rate of reaction.

[9] = tested on: enzyme; experiment: modulator effect on sensitivity of substituted rhodamine 110 substrates; type: cell-based; conditions: 1 mM
Source text: Modulators are components used to […] the sensitivity of the enzyme for the leaving group. The modulators speed up or slow down the activity of an enzyme by changing the active site. […] Preferred modulators for particular enzymes are included in Table 1.

[10] = tested on: dipeptide reagent; experiment: effect of added sodium chloride on dipeptide reagent; type: cell-based; conditions: addition of 7 mM, pH range 6.5 to 8.7
Source text: Inhibitors and poisons (or toxins) are components that can be added to reduce the activity of non-targeted enzymes that provide competing reactions for the leaving group. Inhibitors are usually very selective for a particular enzyme. For example, EDTA only works with enzymes requiring Ca^+2, Mg^+2 and some other metals. […] Preferred inhibitors for particular enzymes are included in Table 1.

Compound: CC(C)C[C@H](N)C(=O)Nc1ccc2c(c1)Oc1cc(NC(=O)[C@@H](N)CC(C)C)ccc1C21OC(=O)c2ccccc21 [LEU, (Leu)2 Rho 110]
- amino peptidase activity [1]: lost their enzymatic activity
- NORMAL LEUKOCYTE ENZYME ACTIVITY, LYMPHS Mean [2]: 34.94
- NORMAL LEUKOCYTE ENZYME ACTIVITY, MONOS Mean [3]: 120.66
- NORMAL LEUKOCYTE ENZYME ACTIVITY, GRANS Mean [4]: 80.19

Compound: CC(C)C[C@H](N)C(=O)NCC(=O)Nc1ccc2c(c1)Oc1cc(NC(=O)CNC(=O)[C@@H](N)CC(C)C)ccc1C21OC(=O)c2ccccc21 [acetate, (H-LEU-GLY)2 Rhodamine 110 Acetate]
- native free fluorescence [5]: 63,000 photons
- autohydrolysis rate [6]: -5.56 change in photons per second
- enzymatic reaction rate of cathepsin B [7]: +128 change in photons per second

Compound: [Ca+2].[Cl-].[Cl-] [calcium chloride]
- effect on aminopeptidase reaction with (H-L-Asp)2 rhodamine 110 [8]: inhibitory to the enzyme reaction

Compound: O[C@H](CS)[C@@H](O)CS [dithioerythritol (DTE), dithioerythritol]
- effect on sensitivity of leaving group for enzyme ([9]; substrates with Ala-Gly and Leu-Gly): does not change the sensitivity
- effect on sensitivity of rhodamine 110 substrates ([9]; substrates with Pro, Gly, Gln-Ser, Val-Lys-Val-Lys, Ala-Ala, Ala-Ala-Ala-Ala): decreases the sensitivity

Compound: [Cl-].[Na+] [sodium chloride]
- effect on dipeptide reagent [10]: slightly inhibitory effect

Compound: CC(C)C[C@H](N)C(=O)NCC(=O)Nc1ccc2c(c1)Oc1cc(NC(=O)CNC(=O)[C@@H](N)CC(C)C)ccc1C21OC(=O)c2ccccc21 [tartrate, (H-LEU-GLY)2 Rhodamine 110 Tartrate]
- autohydrolysis rate [6]: -3.8 change in photons per second
- enzymatic reaction rate of cathepsin B [7]: +138 change in photons per second
